Source: PubChem BioAssay AID1259407 (Chemical Carcinogenesis Research Information System (CCRIS), 2018)
The source made the active and inactive calls. The rule behind the calls is not given here.

Test system: CCRIS mutagenicity, Ames/micronucleus/aberration tests
Test: CCRIS mutagenicity studies
[1] = Test System: AMES SALMONELLA TYPHIMURIUM, Strain/Indicator: TA98, Metabolic Activation: NONE, Method: STANDARD PLATE
[2] = Test System: AMES SALMONELLA TYPHIMURIUM, Strain/Indicator: TA100, Metabolic Activation: NONE, Method: STANDARD PLATE

CC[C@H]1OC(=O)[C@H](C)[C@@H](O[C@H]2C[C@@](C)(OC)[C@@H](O)[C@H](C)O2)[C@H](C)[C@@H](O[C@@H]2O[C@H](C)C[C@H](N(C)C)[C@H]2O)[C@](C)(O)C[C@@H](C)CN(C)[C@H](C)[C@@H](O)[C@]1(C)O
mutagenic call (Test System: AMES SALMONELLA TYPHIMURIUM, Strain/Indicator: TA98, Metabolic Activation: MOUSE, LIVER, S-9, AROCLOR 1254, Method: STANDARD PLATE): inactive; negative | mutagenic call (Test System: AMES SALMONELLA TYPHIMURIUM, Strain/Indicator: TA98, Metabolic Activation: MOUSE, LIVER, S-9, Method: STANDARD PLATE): inactive; negative | mutagenic call [1]: inactive; negative | mutagenic call (Test System: AMES SALMONELLA TYPHIMURIUM, Strain/Indicator: TA98, Metabolic Activation: RAT, LIVER, S-9, AROCLOR 1254, Method: STANDARD PLATE): inactive; negative | mutagenic call (Test System: AMES SALMONELLA TYPHIMURIUM, Strain/Indicator: TA98, Metabolic Activation: RAT, LIVER, S-9, Method: STANDARD PLATE): inactive; negative | mutagenic call (Test System: AMES SALMONELLA TYPHIMURIUM, Strain/Indicator: TA100, Metabolic Activation: MOUSE, LIVER, S-9, AROCLOR 1254, Method: STANDARD PLATE): inactive; negative | mutagenic call (Test System: AMES SALMONELLA TYPHIMURIUM, Strain/Indicator: TA100, Metabolic Activation: MOUSE, LIVER, S-9, Method: STANDARD PLATE): inactive; negative | mutagenic call [2]: inactive; negative | mutagenic call (Test System: AMES SALMONELLA TYPHIMURIUM, Strain/Indicator: TA100, Metabolic Activation: RAT, LIVER, S-9, AROCLOR 1254, Method: STANDARD PLATE): inactive; negative | mutagenic call (Test System: AMES SALMONELLA TYPHIMURIUM, Strain/Indicator: TA100, Metabolic Activation: RAT, LIVER, S-9, Method: STANDARD PLATE): inactive; negative | mutagenic call (Test System: AMES SALMONELLA TYPHIMURIUM, Strain/Indicator: TA1535, Metabolic Activation: MOUSE, LIVER, S-9, AROCLOR 1254, Method: STANDARD PLATE): inactive; negative | mutagenic call (Test System: AMES SALMONELLA TYPHIMURIUM, Strain/Indicator: TA1535, Metabolic Activation: MOUSE, LIVER, S-9, Method: STANDARD PLATE): inactive; negative | mutagenic call (Test System: AMES SALMONELLA TYPHIMURIUM, Strain/Indicator: TA1535, Metabolic Activation: NONE, Method: STANDARD PLATE): inactive; negative | mutagenic call (Test System: AMES SALMONELLA TYPHIMURIUM, Strain/Indicator: TA1535, Metabolic Activation: RAT, LIVER, S-9, AROCLOR 1254, Method: STANDARD PLATE): inactive; negative | mutagenic call (Test System: AMES SALMONELLA TYPHIMURIUM, Strain/Indicator: TA1535, Metabolic Activation: RAT, LIVER, S-9, Method: STANDARD PLATE): inactive; negative | mutagenic call (Test System: AMES SALMONELLA TYPHIMURIUM, Strain/Indicator: TA1537, Metabolic Activation: MOUSE, LIVER, S-9, AROCLOR 1254, Method: STANDARD PLATE): inactive; negative | mutagenic call (Test System: AMES SALMONELLA TYPHIMURIUM, Strain/Indicator: TA1537, Metabolic Activation: MOUSE, LIVER, S-9, Method: STANDARD PLATE): inactive; negative | mutagenic call (Test System: AMES SALMONELLA TYPHIMURIUM, Strain/Indicator: TA1537, Metabolic Activation: NONE, Method: STANDARD PLATE): inactive; negative | mutagenic call (Test System: AMES SALMONELLA TYPHIMURIUM, Strain/Indicator: TA1537, Metabolic Activation: RAT, LIVER, S-9, AROCLOR 1254, Method: STANDARD PLATE): inactive; negative | mutagenic call (Test System: AMES SALMONELLA TYPHIMURIUM, Strain/Indicator: TA1537, Metabolic Activation: RAT, LIVER, S-9, Method: STANDARD PLATE): inactive; negative | mutagenic call (Test System: MOUSE LYMPHOMA, Strain/Indicator: L5178Y (TK+/TK-), Metabolic Activation: NONE, Method: SUSPENSION/PLATE): inactive; negative | mutagenic call (Test System: MOUSE LYMPHOMA, Strain/Indicator: L5178Y (TK+/TK-), Metabolic Activation: RAT, LIVER, S-9, Method: SUSPENSION/PLATE): inactive; negative

O=C(O)c1ccc(NC2OCC(O)C(O)C2O)cc1 (centres undefined)
mutagenic call (Test System: AMES SALMONELLA TYPHIMURIUM, Strain/Indicator: TA100, Metabolic Activation: NONE, Method: LIQUID INCUBATION): inactive; negative

C=C(C)C1CCC(=C)C2C3=C(C[C@H](C)C3=O)C(=O)C(C)=C[C@@H]12 (some centres undefined)
mutagenic call [1]: inactive; negative | mutagenic call (Test System: AMES SALMONELLA TYPHIMURIUM, Strain/Indicator: TA98, Method: STANDARD PLATE): inactive; negative | mutagenic call [2]: inactive; negative | mutagenic call (Test System: AMES SALMONELLA TYPHIMURIUM, Strain/Indicator: TA100, Method: STANDARD PLATE): inactive; negative

CCCc1cc(=O)oc2c3c(c4c(c12)OC(C)(C)C=C4)O[C@H](C)[C@@H](C)[C@H]3O
mutagenic call (Test System: Mouse lymphoma, Strain/Indicator: L5178Y (tk+/tk-), Metabolic Activation: None, Method: Suspension/plate): inactive; negative | mutagenic call (Test System: Mouse lymphoma, Strain/Indicator: L5178Y (tk+/tk-), Metabolic Activation: Rat, Liver, S-9, Aroclor 1254, Method: Suspension/plate): inactive; negative

O=C1CCCc2cc3c(cc21)c([N+](=O)[O-])cc1ccccc13
mutagenic call (Test System: AMES SALMONELLA TYPHIMURIUM, Strain/Indicator: TA98-1,8-DNP6, Metabolic Activation: NONE): inactive; negative | mutagenic call (Test System: AMES SALMONELLA TYPHIMURIUM, Strain/Indicator: TA98-1,8-DNP6, Metabolic Activation: S-9): inactive; negative | mutagenic call (Test System: AMES SALMONELLA TYPHIMURIUM, Strain/Indicator: TA98, Metabolic Activation: NONE): active; positive | mutagenic call (Test System: AMES SALMONELLA TYPHIMURIUM, Strain/Indicator: TA98, Metabolic Activation: S-9): active; positive | mutagenic call (Test System: AMES SALMONELLA TYPHIMURIUM, Strain/Indicator: TA98NR, Metabolic Activation: NONE): inactive; negative | mutagenic call (Test System: AMES SALMONELLA TYPHIMURIUM, Strain/Indicator: TA98NR, Metabolic Activation: S-9): inactive; negative | mutagenic call (Test System: AMES SALMONELLA TYPHIMURIUM, Strain/Indicator: TA100, Metabolic Activation: NONE): active; positive | mutagenic call (Test System: AMES SALMONELLA TYPHIMURIUM, Strain/Indicator: TA100, Metabolic Activation: S-9): active; positive | mutagenic call (Test System: AMES SALMONELLA TYPHIMURIUM, Strain/Indicator: TA100NR, Metabolic Activation: NONE): active; positive | mutagenic call (Test System: AMES SALMONELLA TYPHIMURIUM, Strain/Indicator: TA100NR, Metabolic Activation: S-9): active; positive
